# Laboratory results reported in patent US11566002B2, “Substituted tetrahydrocyclopenta[C]pyrroles, substituted dihydropyrrolizines, analogues thereof, and methods using same” (priority 2018, dated 2023).
# Test system: HBV rcDNA
# Experiment: HepDE19 assay with bDNA quantitation of HBV rcDNA
# Format: cell-based, hepatitis B virus
# Conditions: HepDE19 cells, Tet-free medium, 7 day-incubation, rcDNA measured by Quantigene 2.0 bDNA assay, top concentration 25 μM; read-out: DE-19 bDNA EC50
# In short: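 HepDE19 cells (50,000/well) switched to Tet-free medium, then treated 7 days at 37° C with compounds from 25 μM (½-log, 8-point, duplicate; 0.5% DMSO). rcDNA quantified by bDNA with HBV probes; EC50/EC90 by 4-parameter fit. CC50 from CTG ATP on 5,000 cells/well after 4 days.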
row,SMILES,EC50
1,"Cn1c(Cl)c2c(c1C(=O)Nc1ccc(F)c(Cl)c1)CCC2NC(=O)OCc1cn[nH]n1 (single isomer, unassigned) [Compound 107, (2H-1,2,3-Triazol-4-yl)methyl (3-chloro-1-((3-chloro-4-fluorophenyl)carbamoyl)-2-methyl-2,4,5,6-tetrahydrocyclopenta[c]pyrrol-4-yl)carbamate]",0.01 µM
2,"Cc1c2c(c(C(=O)Nc3ccc(F)c(Cl)c3)n1C)CCC2NC(=O)OCc1ncn(C)n1 (single isomer, unassigned) [Compound 83, (1-Methyl-1H-1,2,4-triazol-3-yl)methyl (1-((3-chloro-4-fluorophenyl)carbamoyl)-2,3-dimethyl-2,4,5,6-tetrahydrocyclopenta[c]pyrrol-4-yl)carbamate]",3.3 µM
3,"Cn1cnc(COC(=O)NC2CCCCc3c2cn(C)c3C(=O)Nc2ccc(F)c(Cl)c2)n1 (single isomer, unassigned) [Compound 89, (1-Methyl-1H-1,2,4-triazol-3-yl)methyl (1-((3-chloro-4-fluorophenyl)carbamoyl)-2-methyl-2,4,5,6,7,8-hexahydrocyclohepta[c]pyrrol-4-yl)carbamate]",2.9 µM
4,"Cn1c(Cl)c2c(c1C(=O)Nc1ccc(F)c(Cl)c1)CCC2NC(=O)OCc1nc[nH]n1 (single isomer, unassigned) [Compound 105, (1H-1,2,4-Triazol-3-yl)methyl (3-chloro-1-((3-chloro-4-fluorophenyl)carbamoyl)-2-methyl-2,4,5,6-tetrahydrocyclopenta[c]pyrrol-4-yl)carbamate]",0.01 µM
5,"Cc1c2c(c(C(=O)Nc3ccc(F)c(Cl)c3)n1C)CCC2NC(=O)OCc1c[nH]nn1 (single isomer, unassigned) [Compound 131, (1H-1,2,3-Triazol-4-yl)methyl (1-((3-chloro-4-fluorophenyl)carbamoyl)-2,3-dimethyl-2,4,5,6-tetrahydrocyclopenta[c]pyrrol-4-yl)carbamate]",1.7 µM
6,"Cn1cc2c(c1C(=O)Nc1ccc(F)c(Cl)c1)CCC2NC(=O)OCc1ccccn1 (stereo not drawn) [Compound 2, pyridin-2-ylmethyl (1-((3-chloro-4-fluorophenyl)carbamoy1)-2-methyl-2,4,5,6-tetrahydrocyclopenta[c]pyrrol-4-yl)carbamate]",0.26 µM
7,"Cn1ncc(COC(=O)NC2CCc3c2cn(C)c3C(=O)Nc2ccc(F)c(Cl)c2)n1 (single isomer, unassigned) [Compound 129, (2-Methyl-2H-1,2,3-triazol-4-yl)methyl (1-((3-chloro-4-fluorophenyl)carbamoyl)-2-methyl-2,4,5,6-tetrahydrocyclopenta[c]pyrrol-4-yl)carbamate]",0.04 µM
8,"Cn1cnc(COC(=O)NC2CCn3c(C(=O)Nc4ccc(F)c(Cl)c4)ccc32)n1 (single isomer, unassigned) [Compound 41, (1-Methyl-1H-1,2,4-triazol-3-yl)methyl (5-((3-chloro-4-fluorophenyl)carbamoyl)-2,3-dihydro-1H-pyrrolizin-1-yl)carbamate]",≥ 25 µM
9,"Cn1cc2c(c1C(=O)Nc1ccc(F)c(Cl)c1)CCC2NC(=O)OCc1c[nH]nn1 (single isomer, unassigned) [Compound 60, (1H-1,2,3-Triazol-4-yl)methyl (1-((3-chloro-4-fluorophenyl)carbamoyl)-2-methyl-2,4,5,6-tetrahydrocyclopenta[c]pyrrol-4-yl)carbamate]",0.06 µM
10,"CCn1cc2c(c1C(=O)Nc1ccc(F)c(Cl)c1)CCC2NS(=O)(=O)C1CC1 (single isomer, unassigned) [Compound 16, N-(3-Chloro-4-fluorophenyl)-4-(cyclopropanesulfonamido)-2-ethyl-2,4,5,6-tetrahydrocyclopenta[c]pyrrole-1-carboxamide]",0.13 µM
11,"Cn1cnc(COC(=O)NC2CCc3c2cn(C)c3C(=O)Nc2ccc(F)c(Cl)c2)n1 (single isomer, unassigned) [Compound 26, (1-Methyl-1H-1,2,4-triazol-3-yl)methyl (1-((3-chloro-4-fluorophenyl)carbamoyl)-2-methyl-2,4,5,6-tetrahydrocyclopenta[c]pyrrol-4-yl)carbamate]",0.05 µM
12,"Cn1cc2c(c1C(=O)Nc1ccc(F)c(Cl)c1)CCC2NC(=O)OCc1n[nH]nc1C1CC1 (single isomer, unassigned) [Compound 147, (5-Cyclopropyl-2H-1,2,3-triazol-4-yl)methyl (1-((3-chloro-4-fluorophenyl)carbamoyl)-2-methyl-2,4,5,6-tetrahydrocyclopenta[c]pyrrol-4-yl)carbamate]",3.6 µM
13,"Cn1cc2c(c1C(=O)Nc1ccc(F)c(Cl)c1)CCC2NC(=O)OCc1ncco1 (single isomer, unassigned) [Compound 35, Oxazol-2-ylmethyl (1-((3-chloro-4-fluorophenyl)carbamoyl)-2-methyl-2,4,5,6-tetrahydrocyclopenta[c]pyrrol-4-yl)carbamate]",1.8 µM
14,"Cn1cc(COC(=O)NC2CCc3c2cn(C)c3C(=O)Nc2ccc(F)c(Cl)c2)nn1 (single isomer, unassigned) [Compound 117, (1-Methyl-1H-1,2,3-triazol-4-yl)methyl (1-((3-chloro-4-fluorophenyl)carbamoyl)-2-methyl-2,4,5,6-tetrahydrocyclopenta[c]pyrrol-4-yl)carbamate]",6.1 µM
15,"CNC(=O)NC1CCc2c1c[nH]c2C(=O)Nc1ccc(F)c(Cl)c1 (single isomer, unassigned) [Compound 10, N-(3-Chloro-4-fluorophenyl)-4-(3-methylureido)-2,4,5,6-tetrahydrocyclopenta[c]pyrrole-1-carboxamide]",16 µM
16,"Cn1cnc(COC(=O)NC2CCc3c2c(Br)n(C)c3C(=O)Nc2ccc(F)c(Cl)c2)n1 (single isomer, unassigned) [Compound 48, (1-Methyl-1H-1,2,4-triazol-3-yl)methyl (3-bromo-1-((3-chloro-4-fluorophenyl)carbamoyl)-2-methyl-2,4,5,6-tetrahydrocyclopenta[c]pyrrol-4-yl)carbamate]",0.01 µM
17,"Cn1cc(COC(=O)NC2CCc3c2cn(C)c3C(=O)Nc2ccc(F)c(Cl)c2)nn1 (single isomer, unassigned) [Compound 116, (1-Methyl-1H-1,2,3-triazol-4-yl)methyl (1-((3-chloro-4-fluorophenyl)carbamoyl)-2-methyl-2,4,5,6-tetrahydrocyclopenta[c]pyrrol-4-yl)carbamate]",0.05 µM

# Same assay, conditions: Hepatitis B virus, HepDE19, 168 h, HepDE19 cells, Tet-free medium, 7 day-incubation, rcDNA measured by Quantigene 2.0 bDNA assay, top concentration 25 μM; read-out: DE-19 bDNA EC50
row,SMILES,EC50
1,"Cn1cc2c(c1C(=O)Nc1ccc(F)c(Cl)c1)CCC2NC(=O)OCc1nc[nH]n1 (racemic) [Compound 54, (1H-1,2,4-triazol-3-yl)methyl (1-((3-chloro-4-fluorophenyl)carbamoyl)-2-methyl-2,4,5,6-tetrahydrocyclopenta[c]pyrrol-4-yl)carbamate]",0.06 µM
2,"Cn1cc2c(c1C(=O)Nc1ccc(F)c(Cl)c1)CCCC2NS(=O)(=O)C1CC1 (single isomer, unassigned) [Compound 78, N-(3-Chloro-4-fluorophenyl)-4-(cyclopropanesulfonamido)-2-methyl-4,5,6,7-tetrahydro-2H-isoindole-1-carboxamide]",3.96 µM
3,"CC(C)OC(=O)C1(COC(=O)NC2CCc3c2cn(C)c3C(=O)Nc2ccc(F)c(Cl)c2)CC(F)(F)C1 (racemic) [Compound 46, isopropyl 1-((((1-((3-chloro-4-fluorophenyl)carbamoyl)-2-methyl-2,4,5,6-tetrahydrocyclopenta[c]pyrrol-4-yl)carbamoyl)oxy)methyl)-3,3-difluorocyclobutane-1-carboxylate]",2.3 µM
4,"Cn1cc2c(c1C(=O)Nc1ccc(F)c(Cl)c1)CCC2N (stereo not drawn) [Compound 100, 4-Amino-N-(3-chloro-4-fluorophenyl)-2-methyl-2,4,5,6-tetrahydrocyclopenta[c]pyrrole-1-carboxamide]",3.8 µM
5,"Cn1cnc(COC(=O)NC2CCc3c2cn(C)c3C(=O)Nc2ccnc(Cl)c2)n1 (single isomer, unassigned) [Compound 68, (1-methyl-1H-1,2,4-triazol-3-yl)methyl (1-((2-chloropyridin-4-yl)carbamoyl)-2-methyl-2,4,5,6-tetrahydrocyclopenta[c]pyrrol-4-yl)carbamate]",0.66 µM

# Same assay, conditions: read-out: DE-19 bDNA EC50; HepDE19 cells, Tet-free medium, 7 day-incubation, rcDNA measured by Quantigene 2.0 bDNA assay, top concentration 25 μM
row,SMILES,EC50
1,"CCc1n[nH]nc1COC(=O)NC1CCc2c1cn(C)c2C(=O)Nc1ccc(F)c(Cl)c1 (single isomer, unassigned) [Compound 140, (5-Ethyl-2H-1,2,3-triazol-4-yl)methyl(1-((3-chloro-4-fluorophenyl)carbamoyl)-2-methyl-2,4,5,6-tetrahydrocyclopenta[c]pyrrol-4-yl)carbamate]",12 µM
2,"CCC#CCOC(=O)NC1CCc2c1cn(C)c2C(=O)Nc1ccc(F)c(Cl)c1 (single isomer, unassigned) [Compound 113, Pent-2-yn-1-yl(1-((3-chloro-4-fluorophenyl)carbamoyl)-2-methyl-2,4,5,6-tetrahydrocyclopenta[c]pyrrol-4-yl)carbamate]",0.12 µM
